Reference: patent US20230365568A1, “PLK1 POLO BOX DOMAIN INHIBITORS AND METHOD OF TREATING CANCER” (The United States of America,as represented by the …, priority 2020, published 2023)

Experiments:
[1] = Microsomal metabolic stability, rat liver microsomes (RLM); details: rat liver microsomes
[2] = for PAMPA permeability: pH 7.4

Row | Molecule | t1/2 (min, RLM) [1] | PAMPA [2] [×10⁻⁶ cm/s] | Solub. (Aqueous solubility; aqueous solubility) [µg/mL] | Solub. (μg/ml) (Aqueous solubility; aqueous solubility) | solubility (Aqueous solubility) | PAMPA permeability [2]
1 | 4-(3-aminopropyl)-9-fluoro-1-thioxo-2,4-dihydro-[1,2,4]triazolo[4,3-a]quinazolin-5(1H)-one [compound 69] | >30 min |  |  |  |  | 
2 | CN(C)c1ccc2c(c1)c(=O)n(CCc1ccccc1)c1n[nH]c(=S)n21 [Cmpd 45] |  | 356 |  |  |  | 
3 | O=c1c2cc(F)ccc2n2c(=S)[nH]nc2n1CCc1cccnc1 [Cmpd 84] |  | <1 |  |  |  | 
4 | CC(C)(C)OC(=O)NCCCCCC(=O)NCCCn1c(=O)c2cc(F)ccc2n2c(=S)[nH]nc12 [Cmpd 101] |  | 405 |  |  |  | 
5 | CC(C)(C)OC(=O)CC[C@H](NC(=O)OC(C)(C)C)C(=O)NCCCn1c(=O)c2cc(F)ccc2n2c(=S)[nH]nc12 [Cmpd 103] |  | 744 |  |  |  | 
6 | O=c1c2ccccc2n2c(=O)[nH]nc2n1CCc1ccccc1 [compound 15] |  |  | <1 |  |  | 
7 | Nc1nnc2n(CCc3ccccc3)c(=O)c3cc(F)ccc3n12 [compound 16] | 29.4 min | 885 | 2.2 |  |  | 
8 | Cc1nnc2n(CCc3ccccc3)c(=O)c3cc(F)ccc3n12 [compound 17] | 10.7 min |  | 11.0 |  |  | 
9 | O=c1c2cc(F)ccc2n2cnnc2n1CCc1ccccc1 [compound 18] | 11.8 min | 924 | 14.8 |  |  | 
10 | CCn1c(=O)c2ccccc2n2c(=S)[nH]nc12 [compound 20] | >30 min | 427 | >36 |  |  | 
11 | CC(C)n1c(=O)c2ccccc2n2c(=S)[nH]nc12 [compound 26] |  |  | 19.5 |  |  | 
12 | O=c1c2ccccc2n2c(=S)[nH]nc2n1CCC(F)(F)F [compound 27] | >30, min | 82 | 23.3 |  |  | 
13 | CC(C)CNC(=O)CCn1c(=O)c2ccccc2n2c(=S)[nH]nc12 [compound 32] |  |  | 30.8 |  |  | 
14 | CCCn1c(=O)c2ccccc2n2c(=S)n(CN(C)C3CC3)nc12 [compound 35] |  |  |  | Insol. |  | 
15 | CCCn1c(=O)c2ccccc2n2c(=S)n(CN(CC)CC(C)C)nc12 [compound 38] |  |  | 8.7 |  |  | 
16 | O=c1c2cc(F)ccc2n2c(=S)[nH]nc2n1Cc1ccccc1 [compound 52] | >30 min | 841 | 8.3 |  |  | 
17 | O=c1c2cc(F)ccc2n2c(=S)[nH]nc2n1CCCc1ccccc1 [compound 53] | 8.8 min |  | <1 |  |  | 
18 | O=c1c2cc(Cl)ccc2n2c(=S)[nH]nc2n1CCC(F)(F)F [compound 55] | >30 min | 257 | 5.1 |  |  | 
19 | CC(C)OCCCn1c(=O)c2cc(Cl)ccc2n2c(=S)[nH]nc12 [compound 56] |  |  | 8.6 |  |  | 

Row | Molecule | t1/2 (min, RLM) [1] | PAMPA [2] [×10⁻⁶ cm/s] | Solub. (Aqueous solubility; aqueous solubility) [µg/mL] | Solub. (μg/ml) (Aqueous solubility; aqueous solubility) | solubility (Aqueous solubility) | PAMPA permeability [2]
20 | CC(C)NC(=O)CCn1c(=O)c2cc(Cl)ccc2n2c(=S)[nH]nc12 [compound 57] |  |  | 8.1 |  |  | 
21 | CNC(=S)N1CN(CCc2ccccc2)C(=O)c2cc(F)ccc21 [compound 62] | 2.2 min | 161 | 4.5 |  |  | 
22 | CCn1c(=O)c2cc(F)ccc2n2c(=S)[nH]nc12 [compound 63] | >30 min |  | >39 |  |  | 
23 | O=c1c2cc(F)ccc2n2c(=S)[nH]nc2n1CCC(F)(F)F [compound 65] | >30 min | 117 | 17.3 |  | moderate to good solubility | moderate to good permeability
24 | O=c1c2cc(F)ccc2n2c(=S)[nH]nc2n1CCCO [compound 66] | >30 min | 222 | >43 |  |  | 
25 | NCCn1c(=O)c2cc(F)ccc2n2c(=S)[nH]nc12 [compound 67] | >30 min |  | >41 |  |  | 
26 | CN(C)CCn1c(=O)c2cc(F)ccc2n2c(=S)[nH]nc12 [compound 70] | >30 min | 177 | >45 |  |  | 
27 | CC(CN(C)C)n1c(=O)c2cc(F)ccc2n2c(=S)[nH]nc12 (stereo not shown) [compound 71] | >30 min | 186 | >47 |  |  | 
28 | CC(=O)NCCn1c(=O)c2cc(F)ccc2n2c(=S)[nH]nc12 [compound 72] | >30 min |  | >47 |  |  | 
29 | O=C(NCCCn1c(=O)c2cc(F)ccc2n2c(=S)[nH]nc12)c1ccccc1 [compound 74] | >30 min | 267 | 21.9 |  |  | 
30 | CS(=O)(=O)NCCCn1c(=O)c2cc(F)ccc2n2c(=S)[nH]nc12 [compound 76] | >30 min |  | 34 |  |  | 
31 | O=c1c2cc(F)ccc2n2c(=S)[nH]nc2n1CCP(=O)(O)O [compound 77] |  |  | >51 |  |  | 
32 | CCOP(=O)(CCn1c(=O)c2cc(F)ccc2n2c(=S)[nH]nc12)OCC [compound 78] | >30 min |  | >59 |  |  | 
33 | O=c1c2cc(F)ccc2n2c(=S)[nH]nc2n1CCc1ccccc1Cl [compound 81] | 22.8 min |  | 3.0 |  |  | 
34 | O=c1c2cc(F)ccc2n2c(=S)[nH]nc2n1CCc1ccc(Cl)cc1 [compound 82] | >30 min | <1 | 1.2 |  |  | 
35 | O=c1c2cc(F)ccc2n2c(=S)[nH]nc2n1CCc1ccccn1 [compound 83] | >30 min | 355 | 13.0 |  |  | moderate to good permeability
36 | CC(C)(C)OC(=O)N1CC(CCn2c(=O)c3cc(F)ccc3n3c(=S)[nH]nc23)C1 [compound 86] |  | 229 | 15 |  |  | 
37 | CN1CCCC1CCn1c(=O)c2cc(F)ccc2n2c(=S)[nH]nc12 (stereo not shown) [compound 87] | >30 min |  | 17.8 |  |  | 
38 | O=c1c2cc(F)ccc2n2c(=S)[nH]nc2n1CCN1CCCCC1 [compound 88] | >30 min | 358 | 2.4 |  |  | 

Row | Molecule | t1/2 (min, RLM) [1] | PAMPA [2] [×10⁻⁶ cm/s] | Solub. (Aqueous solubility; aqueous solubility) [µg/mL] | Solub. (μg/ml) (Aqueous solubility; aqueous solubility) | solubility (Aqueous solubility) | PAMPA permeability [2]
39 | O=c1c2cc(F)ccc2n2c(=S)[nH]nc2n1CCN1CCC(F)(F)CC1 [compound 89] | >30 min | 234 | 20.2 |  |  | 
40 | O=c1c2cc(F)ccc2n2c(=S)[nH]nc2n1CCN1CCOCC1 [compound 90] | >30 min | 67.0 | >52 |  |  | 
41 | CN1CCN(CCn2c(=O)c3cc(F)ccc3n3c(=S)[nH]nc23)CC1 [compound 91] | >30 min |  | >54 |  |  | 
42 | CC(C)(C)OC(=O)N1CCN(CCn2c(=O)c3cc(F)ccc3n3c(=S)[nH]nc23)CC1 [compound 92] | 26.3 min |  | 20.5 |  |  | 
43 | NCCOCCOCCOCCC(=O)NCCCn1c(=O)c2cc(F)ccc2n2c(=S)[nH]nc12 [compound 98] | >30 min |  | 36.1 |  |  | 
44 | NCCCCCC(=O)NCCCn1c(=O)c2cc(F)ccc2n2c(=S)[nH]nc12 [compound 100] | >30 min |  | 31.8 |  |  | 
45 | CC(C)(C)OC(=O)CC[C@@H](NC(=O)OC(C)(C)C)C(=O)NCCCn1c(=O)c2cc(F)ccc2n2c(=S)[nH]nc12 [compound 102] | 25.1 min |  | 20.4 |  |  | 
46 | CC(C)(C)[C@H]1CC[C@H](C(=O)NCCCn2c(=O)c3cc(F)ccc3n3c(=S)[nH]nc23)CC1 [compound 109] | >30 min |  | 1.1 |  |  | 
47 | NC1CCC(C(=O)NCCCn2c(=O)c3cc(F)ccc3n3c(=S)[nH]nc23)CC1 (stereo not shown) [compound 111] | >30 min |  | 38.8 |  |  | 
48 | O=C(NCCCn1c(=O)c2cc(F)ccc2n2c(=S)[nH]nc12)C1CCCCN1 (stereo not shown) [compound 112] | >30 min |  | >60 |  |  | 
49 | O=C(NCCCn1c(=O)c2cc(F)ccc2n2c(=S)[nH]nc12)C1CCCNC1 (stereo not shown) [compound 113] | >30 min |  | 29.6 |  |  | 
50 | O=C(NCCCn1c(=O)c2cc(F)ccc2n2c(=S)[nH]nc12)C1CCNCC1 [compound 114] | >30 min |  | >60 |  |  | 
51 | O=C(NCCCn1c(=O)c2cc(F)ccc2n2c(=S)[nH]nc12)C1CCOCC1 [compound 115] |  | 8.0 | <1 |  |  | 
52 | O=C(CC1CCNCC1)NCCCn1c(=O)c2cc(F)ccc2n2c(=S)[nH]nc12 [compound 116] | >30 min |  | 37.5 |  |  | 
53 | O=C(NCCCn1c(=O)c2cc(F)ccc2n2c(=S)[nH]nc12)c1ccc(Cn2ccnc2)cc1 [compound 119, 4-((1H-imidazol-1-yl)methyl)-N-(3-(7-fluoro-5-oxo-1-thioxo-1,2-dihydro-[1,2,4]triazolo[4,3-a]quinazolin-4(5H)-yl)propyl)benzamide] | >30 min |  | 13.7 |  |  | 
54 | O=C(Cc1ccc(F)cc1)NCCCn1c(=O)c2cc(F)ccc2n2c(=S)[nH]nc12 [compound 123, N-(3-(7-fluoro-5-oxo-1-thioxo-1,2-dihydro-[1,2,4]triazolo[4,3-a]quinazolin-4(5H)-yl)propyl)-2-(4-fluorophenyl)acetamide] | 26.3 min |  |  |  |  | 
55 | O=C(Cc1ccc(O)cc1)NCCCn1c(=O)c2cc(F)ccc2n2c(=S)[nH]nc12 [compound 127, N-(3-(7-fluoro-5-oxo-1-thioxo-1,2-dihydro-[1,2,4]triazolo[4,3-a]quinazolin-4(5H)-yl)propyl)-2-(4-hydroxyphenyl)acetamide] | >30 min |  | 31.0 |  |  | 
56 | O=C(Cc1cccc(C(F)(F)F)c1)NCCCn1c(=O)c2cc(F)ccc2n2c(=S)[nH]nc12 [compound 132, N-(3-(7-fluoro-5-oxo-1-thioxo-1,2-dihydro-[1,2,4]triazolo[4,3-a]quinazolin-4(5H)-yl)propyl)-2-(3-(trifluoromethyl)phenyl)acetamide] | 17.3 min |  | 26.8 |  |  | 
